Data published in ChEMBL document CHEMBL1201862, “PubChem BioAssay data set” (2004).
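Tested at 5 concentrations; 48 h exposure; 96-well plates; endpoints linearly interpolated, else capped at highest concentration. Abbreviation: GI50, concentration required for 50% inhibition of growth.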 Activity calls are given as the source filed them. Cut-off read from the data, not from the text of the source: active = GI50 up to about 1.1 µM and inactive = higher.

How the values were obtained:
Test in all cases: inhibition of tumour cell growth, NCI panel, 48 h
M19-MEL = tested on: M19-MEL
XF498 = tested on: XF498
DMS-114 = tested on: DMS-114
SNB-78 = tested on: SNB-78
LXFL 529 = tested on: LXFL 529
KM-20L2 = tested on: KM-20L2
DLD-1 = tested on: DLD-1
DMS-273 = tested on: DMS-273
RXF 631 = tested on: RXF 631

| Structure (SMILES) | GI50 (M19-MEL) | GI50 (XF498) | GI50 (DMS-114) | GI50 (SNB-78) | GI50 (LXFL 529) | GI50 (KM-20L2) | GI50 (DLD-1) | GI50 (DMS-273) | GI50 (RXF 631) |
| --- | --- | --- | --- | --- | --- | --- | --- | --- | --- |
| C/C(CC(=O)Nc1cccc([N+](=O)[O-])c1)=N\NC(=O)C[n+]1ccccc1 | > 100 µM (inactive) | > 100 µM (inactive) | > 100 µM (inactive) | > 100 µM (inactive) | > 100 µM (inactive) | > 100 µM (inactive) | > 100 µM (inactive) | – | – |
| N=C(N)NCCCC(Nc1c2ccccc2[n+]([O-])c2ccccc12)C(=O)O (stereo not given) | 44.7 µM (inactive) | – | 23.6 µM (inactive) | – | 22.5 µM (inactive) | 95.7 µM (inactive) | 28.4 µM (inactive) | 40.5 µM (inactive) | > 100 µM (inactive) |
| CCN(CC)CC(=O)NC1c2ccccc2Oc2ccccc21 | > 100 µM (inactive) | > 100 µM (inactive) | > 100 µM (inactive) | > 100 µM (inactive) | > 100 µM (inactive) | > 100 µM (inactive) | > 100 µM (inactive) | > 100 µM (inactive) | – |
| COC(=O)N/N=C/c1oc(-c2cccc([N+](=O)[O-])c2)c(-c2cccc([N+](=O)[O-])c2)c1[N+](=O)[O-] | > 100 µM (inactive) | > 100 µM (inactive) | – | – | > 100 µM (inactive) | > 100 µM (inactive) | > 100 µM (inactive) | > 100 µM (inactive) | – |
| O=C(c1ccccc1)[C@H]1Nc2cnccc2C2c3ccccc3CC21 (stereo not given in full) | 8.3 µM (inactive) | 23.7 µM (inactive) | 10 µM (inactive) | 15.5 µM (inactive) | 4.38 µM (inactive) | 21.2 µM (inactive) | 7.01 µM (inactive) | 26.6 µM (inactive) | 19.9 µM (inactive) |
| CCCCCCCCCOC(=S)NC | 23.4 µM (inactive) | 18.2 µM (inactive) | – | – | 17.8 µM (inactive) | 18 µM (inactive) | 16.6 µM (inactive) | 18.3 µM (inactive) | 21 µM (inactive) |
| CC(C)S(=O)(=O)ON1C(=O)c2ccc(N(C)C)cc2C1=O | – | 17.7 µM (inactive) | – | 31.3 µM (inactive) | 9.91 µM (inactive) | 20.4 µM (inactive) | – | 19.8 µM (inactive) | 13.2 µM (inactive) |
| COc1ccc(-n2/c(=N/C(=S)N(C)C)ss/c2=N\C(=S)N(C)C)cc1 | 7.43 µM (inactive) | – | 7.36 µM (inactive) | 39.4 µM (inactive) | – | 27.7 µM (inactive) | – | 10.7 µM (inactive) | – |
| CN1C(c2ccccc2)CC(C)(O)CC1c1ccccc1 (stereo not given) | > 100 µM (inactive) | – | > 100 µM (inactive) | > 100 µM (inactive) | > 100 µM (inactive) | > 100 µM (inactive) | > 100 µM (inactive) | > 100 µM (inactive) | > 100 µM (inactive) |
| Cc1c(CNc2ccc(Cl)c(C(=O)NC(CC(=O)O)C(=O)O)c2)ccc2nc(N)nc(N)c12 (stereo not given) | 13.7 µM (inactive) | > 100 µM (inactive) | 0.038 µM (active) | > 100 µM (inactive) | – | 0.665 µM (active) | 0.0631 µM (active) | 0.0617 µM (active) | – |
| CC(=O)Nc1ccc(/C=C/C(=O)c2sc(-c3cccnc3)nc2C)cc1 | > 100 µM (inactive) | – | > 100 µM (inactive) | > 100 µM (inactive) | – | > 100 µM (inactive) | > 100 µM (inactive) | > 100 µM (inactive) | – |
| NNC(=O)CCC(=O)Nc1ccc(Cl)cc1Cl | > 100 µM (inactive) | > 100 µM (inactive) | > 100 µM (inactive) | > 100 µM (inactive) | 29.7 µM (inactive) | > 100 µM (inactive) | > 100 µM (inactive) | 31.8 µM (inactive) | > 100 µM (inactive) |
| CCOC(=O)C(/C(=N\NC(=O)OC)C(=O)Nc1cc(OC)ccc1OC)c1cnc2ccccc2n1 (stereo not given) | > 100 µM (inactive) | > 100 µM (inactive) | > 100 µM (inactive) | > 100 µM (inactive) | > 100 µM (inactive) | – | > 100 µM (inactive) | – | – |
| C=C1C(=O)OC2C1CCC(C)C1C=CC(=O)C12C (stereo not given) | 3.36 µM (inactive) | 3.29 µM (inactive) | – | 3.14 µM (inactive) | 1.58 µM (inactive) | 3.61 µM (inactive) | 1.89 µM (inactive) | 4.08 µM (inactive) | – |
| C/C(=N\N(C)C)c1sc(-n2nc(-c3ccccc3)cc2-c2ccccc2)nc1C | > 100 µM (inactive) | > 100 µM (inactive) | 72.6 µM (inactive) | > 100 µM (inactive) | > 100 µM (inactive) | > 100 µM (inactive) | > 100 µM (inactive) | > 100 µM (inactive) | 43.9 µM (inactive) |
| CC1CCC2c3c([nH]c4ccccc34)C3C(=O)N(c4ccccc4)C(=O)C3C2C1 (stereo not given) | > 250 µM (inactive) | 1.82 µM (inactive) | 45.5 µM (inactive) | 10.6 µM (inactive) | > 250 µM (inactive) | > 250 µM (inactive) | > 250 µM (inactive) | 40.6 µM (inactive) | 89.1 µM (inactive) |
| CN1CCN(c2ccc3[nH]c(-c4ccc5[nH]c(-c6ccc(O)cc6)nc5c4)nc3c2)CC1 | 18.1 µM (inactive) | 34.4 µM (inactive) | 38.5 µM (inactive) | 265 µM (inactive) | – | 158 µM (inactive) | 178 µM (inactive) | 21.6 µM (inactive) | – |
| CCCCNC(=S)OCCC(C)CCCC(C)C (stereo not given) | > 100 µM (inactive) | > 100 µM (inactive) | > 100 µM (inactive) | > 100 µM (inactive) | > 100 µM (inactive) | > 100 µM (inactive) | > 100 µM (inactive) | > 100 µM (inactive) | – |
| Cc1cc(Cl)ccc1NC(=O)C(=O)Cc1nc2ccc(C(=O)c3ccccc3)cc2nc1O | > 100 µM (inactive) | > 100 µM (inactive) | 33.4 µM (inactive) | – | 48.6 µM (inactive) | > 100 µM (inactive) | > 100 µM (inactive) | 49.2 µM (inactive) | – |
| CSc1cccc(-n2c3nc(=O)n(C)c(=O)c-3nc3ccccc32)c1 | 2.07 µM (inactive) | 3.51 µM (inactive) | 3.27 µM (inactive) | 19.4 µM (inactive) | 13.3 µM (inactive) | 3.54 µM (inactive) | 14 µM (inactive) | 1.66 µM (inactive) | – |
| N#CCCN(c1ccc(/C=C2\N=C(Cc3ccccc3)OC2=O)cc1)S(=O)(=O)c1ccccc1 | – | > 100 µM (inactive) | > 100 µM (inactive) | > 100 µM (inactive) | > 100 µM (inactive) | > 100 µM (inactive) | > 100 µM (inactive) | > 100 µM (inactive) | – |
| O=C(CN1CCN(c2cccc(Cl)c2)CC1)N1CCc2c([nH]c3ccccc23)C1c1cccnc1 (stereo not given) | 7.76 µM (inactive) | 12.2 µM (inactive) | 4.25 µM (inactive) | 18.3 µM (inactive) | – | 3 µM (inactive) | 7.31 µM (inactive) | 6.68 µM (inactive) | 7.31 µM (inactive) |
| O=C1CCC(=O)c2cc(Br)ccc2N1 | > 70.5 µM (inactive) | > 100 µM (inactive) | > 90.6 µM (inactive) | > 100 µM (inactive) | > 100 µM (inactive) | > 100 µM (inactive) | > 100 µM (inactive) | > 100 µM (inactive) | > 100 µM (inactive) |
